Values of other authors as cited in PMC6683083, “Lupin Peptide T9 (GQEQSHQDEGVIVR) Modulates the Mutant PCSK9^D374Y Pathway: in vitro Characterization of its Dual Hypocholesterolemic Behavior” (Nutrients, 2019).
Like-named read-outs stand apart in the source and are kept apart here.

Experiments:
HMGCoAR = biological target: T1, HMGCoAR (Homo sapiens, UniProt P04035); design: method as in 4 sources, ref [16],[18] = [16]; doi:10.1016/j.jff.2017.02.009; 16. Zanoni C. Aiello G. Arnoldi A. Lammi C. Investigations on the hypocholesterolaemic activity of LILPKHSDAD and LTFPGSAED, two peptides from lupin beta-conglutin: Focus on LDLR and PCSK9 pathways J || [18]; doi:10.1111/jfbc.12524; 18. Lammi C. Zanoni C. Arnoldi A. Aiello G. YDFYPSSTKDQQS (P3), a peptide from lupin protein, absorbed by Caco-2 cells, modulates cholesterol metabolism in HepG2 cells via SREBP-1 activation J. Food B ||| ref [19],[20],[21] = [19]; doi:10.1016/j.jff.2015.02.021; 19. Lammi C. Zanoni C. Arnoldi A. IAVPGEVA, IAVPTGVA, and LPYP, three peptides from soy glycinin, modulate cholesterol metabolism in HepG2 cells through the activation of the LDLR-SREBP2 pathway J. Fu || [20]; PMID 26310992; doi:10.1021/acs.jafc.5b03497; 20. Lammi C. Zanoni C. Vistoli G. Arnoldi A. Two Peptides from Soy β-Conglycinin Induce a Hypocholesterolemic Effect in HepG2 Cells by a Statin-Like Mechanism: Comparative in Vitro and in Silico Model || [21]; PMID 26580610; doi:10.3390/ijms161126029; 21. Lammi C. Zanoni C. Arnoldi A. Three Peptides from Soy Glycinin Modulate Glucose Metabolism in Human Hepatic HepG2 Cells Int. J. Mol. Sci. 2015 16 27362 27370 10.3390/ijms161126029 26580610 PMC4661 ||| ref [6] = [6]; PMID 25690031; doi:10.3390/ijms16024150; 6. Soares R.A. Mendonça S. De Castro L. Menezes A.C. Arêas J.A. Ívini Major Peptides from Amaranth (Amaranthus cruentus) Protein Inhibit HMG-CoA Reductase Activity Int. J. Mol. Sci. 2015 16 4150 4160 ||| ref [4],[16] = [4]; PMID 24972343; doi:10.1021/jf500795b; 4. Lammi C. Zanoni C. Scigliuolo G.M. D’Amato A. Arnoldi A. Lupin Peptides Lower Low-Density Lipoprotein (LDL) Cholesterol through an Up-regulation of the LDL Receptor/Sterol Regulatory Element Bindin || [16]; doi:10.1016/j.jff.2017.02.009; 16. Zanoni C. Aiello G. Arnoldi A. Lammi C. Investigations on the hypocholesterolaemic activity of LILPKHSDAD and LTFPGSAED, two peptides from lupin beta-conglutin: Focus on LDLR and PCSK9 pathways J; conditions: cited from earlier work
T1 construct: purchased Sigma (Sigma-Aldrich, St. Louis, MO, USA)
T1 sequence (P04035 426-888 limits assumed): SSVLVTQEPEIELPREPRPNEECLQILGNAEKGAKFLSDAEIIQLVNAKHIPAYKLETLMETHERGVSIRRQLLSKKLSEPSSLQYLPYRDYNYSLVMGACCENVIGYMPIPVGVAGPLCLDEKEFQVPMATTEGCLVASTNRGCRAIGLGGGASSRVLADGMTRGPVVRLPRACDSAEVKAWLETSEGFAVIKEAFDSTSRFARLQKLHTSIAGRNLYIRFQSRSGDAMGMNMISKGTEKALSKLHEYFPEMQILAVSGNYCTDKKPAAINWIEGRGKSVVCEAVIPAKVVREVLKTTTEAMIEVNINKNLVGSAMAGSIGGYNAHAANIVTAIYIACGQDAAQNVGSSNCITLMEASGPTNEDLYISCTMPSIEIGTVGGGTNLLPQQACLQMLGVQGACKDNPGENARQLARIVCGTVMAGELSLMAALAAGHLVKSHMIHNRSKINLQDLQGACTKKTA

PCSK9 = conditions: cited from earlier work
Text: It is important to observe that some natural PCSK9 mutations affect its affinity for the LDLR. In particular, the gain of function (GOF) mutant D374Y binds more avidly to the LDLR than the wild-type (WT) PCSK9. The consequence is an approximately tenfold increased capacity of reducing the LDLR protein level. Accordingly, subjects with this PCSK9^D374Y mutation have very high LDL-C levels and are at high risk of atherosclerosis. In light of these observations, PCSK9 is currently considered a new target for the treatment of hypercholesterolemia, and the development of novel PCSK9 inhibitor ... || In this panorama, lupin protein hydrolysates, obtained by treating the proteins with pepsin and trypsin, show synergistic hypocholesterolemic effects through the modulation of both HMGCoAR and PCSK9 targets. […] Furthermore, these lupin hydrolysates impair the protein–protein interaction (PPI) betwe ... || Taking into account all this information, it is possible to affirm that there is an interesting similarity between the hypocholesterolemic behaviors of T9 and P5.

LDLR in HepG2 cells = conditions: ref [16]; cited from earlier work
Text: In this panorama, lupin protein hydrolysates, obtained by treating the proteins with pepsin and trypsin, show synergistic hypocholesterolemic effects through the modulation of both HMGCoAR and PCSK9 targets. […] Furthermore, these lupin hydrolysates impair the protein–protein interaction (PPI) betwe ... || Taking into account all this information, it is possible to affirm that there is an interesting similarity between the hypocholesterolemic behaviors of T9 and P5.

HMGCoAR protein levels = conditions: reference not given; presumably ref [16]; cited from earlier work
Text: (§1) Taking into account all this information, it is possible to affirm that there is an interesting similarity between the hypocholesterolemic behaviors of T9 and P5.

HNF-1α = conditions: ref [16]; cited from earlier work
Text: as §1

[1] = test system: SREBP-2 transcription factor; conditions: ref [16]; cited from earlier work
Text: as §1

[2] = test system: PCSK9-LDLR protein–protein interaction; conditions: ref [15]; cited from earlier work
Text: (§2) In this panorama, lupin protein hydrolysates, obtained by treating the proteins with pepsin and trypsin, show synergistic hypocholesterolemic effects through the modulation of both HMGCoAR and PCSK9 targets. […] In parallel, we have also predicted by in silico experiments that T9 had the potential capability of inhibiting the HMGCoAR activity.

[3] = test system: LDL uptake by HepG2 cells; conditions: cited from earlier work
Text: as §2

[4] = lupin β-conglutin peptides (pepsin), in vitro, ref [16],[18], read-out: IC50, HMGCoAR activity
[5] = soybean glycinin peptides, ref [19],[20],[21], read-out: IC50, HMGCoAR activity

LTFPGSAED [P7, absorbable peptide deriving from hydrolysis of lupin β-conglutin with pepsin]
IC50 (HMGCoAR; [4]): 68.4 µM

YDFYPSSTKDQQS [P3, absorbable peptide deriving from hydrolysis of lupin β-conglutin with pepsin]
IC50 (HMGCoAR; [4]): 70 µM

YVVNPDNNEN [soybean peptide from β-conglycinin]
IC50 (HMGCoAR; soybean β-conglycinin peptides, ref [19],[20],[21], read-out: IC50, HMGCoAR activity): 200 µM

IAVPTGVA [soybean peptide from glycinin hydrolysis]
IC50 (HMGCoAR; [5]): 247 µM

IAVPGEVA [soybean peptide from glycinin hydrolysis]
IC50 (HMGCoAR; [5]): 222 µM

COc1ccc2cc3[n+](cc2c1OC)CCc1cc2c(cc1-3)OCO2 [berberine]
PCSK9 pathway (in words) (PCSK9; ref [14]): modulate the PCSK9 pathway

LPYP [soybean peptide from glycinin hydrolysis]
IC50 (HMGCoAR; [5]): 300 µM

VGVL
IC50 (HMGCoAR; amaranth peptide, ref [6], read-out: concentration inhibiting HMGCoAR by 50%): 51.9 µM | HMGCoAR inhibition (in words) (HMGCoAR; amaranth protein hydrolysis peptides, ref [6]): direct inhibition of the reductase activity

LILPKHSDAD [P5, absorbable peptide deriving from hydrolysis of lupin β-conglutin with pepsin]
LDLR protein levels (in words) (LDLR in HepG2 cells): increase of the LDLR protein levels | HMGCoAR protein levels (in words) (HMGCoAR protein levels): does not diminish the HMGCoAR protein levels | HNF-1α level (in words) (HNF-1α): decrease of HNF-1α | SREBP-2 transcription factor activation (in words) [1]: augmentation of the SREBP-2 transcription factor activation | effect on PPI between PCSK9 and LDLR (in words) [2]: able to affect the PPI between PCSK9 and the LDLR | ability of HepG2 cells to clear / absorb extracellular LDL (in words) ([3]; HepG2 cells, ref [15]): increased ability of HepG2 cells to clear extracellular LDL | capacity of HepG2 cells to clear LDL (in words) ([3]; ref [16]): enhanced capacity of HepG2 cells to clear LDL from the extracellular space | IC50 (HMGCoAR; [4]): 147 µM | PCSK9-WT protein level (in words) (PCSK9; ref [16]): decrease of PCSK9-WT protein level | selectivity, PCSK9-WT pathway modulation (in words) (PCSK9; ref [16]): selective toward the PCSK9-WT pathway modulation
